# Data as given in patent US5475016A, “Sulphonylbenzyl-substituted imidazolypropenoic acid derivatives” (Bayer Aktiengesellschaft, priority 1992, dated 1995).
# pIC50, pKi: −log10 of the molar value.
# Test system: isolated aorta rings of rabbits, contraction induced by angiotensin II (AII)
# Test: Inhibition of the vascular contraction in isolated aorta rings of rabbits in vitro, contraction induced by angiotensin II
# Format: cell-based, rabbit
# Conditions: Oryctolagus cuniculus, effect at the 3rd = submaximal agonist concentration, read-out: IC50 against contractions induced by: AII
# Method: Investigation of the Inhibition of the Contraction Induced with Agonists
# Rabbits of both sexes are anaesthetised by a blow to the neck and bled out, or alternatively anaesthetised with Nembutal (about 60-80 mg/kg i.v.) and sacrificed by opening the thorax. The thorax aorta is taken out, freed from adhering connective tissue, divided into 1.5 mm-wide ring segments and these are individually transferred under an initial loading of about 3.5 g to 10-ml organ baths containing 95% O2 /5% CO2 -aerated Krebs-Henseleit nutrient solution, thermostated at 37° C., of the following composition: 119 mmol/l NaCl; 2.5 mmol/l CaCl2 ×2H2 O; 1.2 mmol/l KH2 PO4; 10 mmol/l glucose; 4.8 mmol/l KCl; 1.4 mmol/l MgSO4 ×7 H2 O and 25 mmol/l NaHCO3.
# The contractions are detected isometrically by Statham UC2 cells by means of a bridge amplifier (ifd Mulheim or DSM Aalen) and digitised and evaluated by means of an A/D converter (System 570, Keithley, Munich). The implementation of agonist dose-response curves (DRC) is carried out hourly. With each DRC, 3 or 4 individual concentrations are applied to the baths at 4-min intervals. After the end of the DRC and subsequent washing-out cycles (16 times, in each case about 5 sec/min with the abovementioned nutrient solution), a 28-minute rest or incubation phase follows, in the course of which the contractions as a rule reach the starting value again.
# The height of, in the normal case, the 3rd DRC is used as a reference quantity for the assessment of the test substance to be investigated in further runs, which test substance in the following DRCs is applied at the start of the incubation time to the baths, in each case in an increasing dose. Each aorta ring is in this case stimulated for the whole day, always with the same agonist.
# Agonists and their Standard Concentrations (Administration Volume Per Individual Dose=100 μl):
# For the calculation of the IC50 (concentration at which the substance to be investigated causes a 50% inhibition), the effect in each case at the 3rd=submaximal agonist concentration is used as a basis.
row,Structure (SMILES),pIC50
1,"CCCCc1nc(Cl)c(C=C(CC2CCCC2)C(=O)OC)n1Cc1ccc(S(=O)(=O)N2CCCCC2C(=O)O)cc1Cl (racemic) [Example 2, rac-4-{[2-Butyl-4-chloro-5-(3-cyclopentyl-2-methoxycarbonylprop-1-enyl)imidazolyl]methyl}-3-chlorobenzenesulphonyl-N-(2-carboxy)piperidinide]",7.96
2,CCCCc1nc(Cl)c(C=C(CC2CCCC2)C(=O)O)n1Cc1ccc(S(=O)(=O)N2CCC[C@H]2C(=O)O)cc1 [Example 19],7.40
3,CCCCc1nc(Cl)c(C=C(CC2CCCCC2)C(=O)O)n1Cc1ccc(S(=O)(=O)N2CCC[C@H]2C(=O)O)cc1Cl [Example 24],9.00

# Next, values leading:
row,pIC50,Structure (SMILES)
1,8.40,CCCCc1ncc(C=C(CCC)C(=O)O)n1Cc1ccc(S(=O)(=O)N2CCC[C@H]2C(=O)O)cc1Cl [Example 39]
2,8.52,CCCCc1ncc(C=C(CC(C)C)C(=O)O)n1Cc1ccc(S(=O)(=O)N2CCC[C@H]2C(=O)O)cc1Cl [Example 43]
3,8.40,CCCCc1ncc(C=C(CC2CCCC2)C(=O)O)n1Cc1ccc(S(=O)(=O)N2CCC[C@H]2C(=O)O)cc1Cl [Example 47]
4,8.22,CCCCc1ncc(C=C(Cc2cccs2)C(=O)OC)n1Cc1ccc(S(=O)(=O)N2CCC[C@H]2C(=O)O)cc1Cl [Example 53]
5,8.52,CCCCc1ncc(C=C(Cc2cccs2)C(=O)O)n1Cc1ccc(S(=O)(=O)N2CCC[C@H]2C(=O)O)cc1Cl [Example 55]
6,8.22,CCCCc1ncc(C=C(Cc2ccc(F)cc2)C(=O)OC)n1Cc1ccc(S(=O)(=O)N2CCC[C@H]2C(=O)O)cc1Cl [Example 57]

# Test system: Angiotensin II-infused rat
# Test: Blood pressure measurements on the angiotensin II-infused rat
# Format: in vivo, male Wistar rats
# Conditions: 0.1 mg/kg p.o.; angiotensin II infusion 0.3 μg/kg/min; average values
# Method: Blood Pressure Measurements on the Angiotensin II-Infused Rat
# Male Wistar rats (Moellegaard, Copenhagen, Denmark) having a body weight of 300-350 g are anaesthetised with thiopental (100 mg/kg i.p.). After tracheotomy, a catheter is inserted in the femoral artery for blood pressure measurement and a catheter for angiotensin II infusion and a catheter for substance administration are inserted in the femoral veins. After administration of the ganglionic blocker pentolinium (5 mg/kg i.v.), the angiotensin II infusion (0.3 μg/kg/min) is started. As soon as the blood pressure values have reached a stable plateau, the test substances are administered either intravenously or orally as a suspension or solution in 0.5% Tylose.
row,Structure (SMILES),Blood pressure measurement (blood pressure change)
1,CCCCc1nc(Cl)c(C=C(CC2CCCCC2)C(=O)O)n1Cc1ccc(S(=O)(=O)N2CCC[C@H]2C(=O)O)cc1 [Example 23],-17 mm Hg
2,CCCCc1ncc(C=C(CC(C)C)C(=O)OCC)n1Cc1ccc(S(=O)(=O)N2CCC[C@H]2C(=O)O)cc1Cl [Example 41],-11 mm Hg
3,CCCCc1ncc(C=C(CC(C)C)C(=O)O)n1Cc1ccc(S(=O)(=O)N2CCC[C@H]2C(=O)O)cc1Cl [Example 43],-10 mm Hg

# Target: T1, Angiotensin II receptor (Bos taurus, UniProt P25104)
# T1 construct: from tissue; host or cells: bovine adrenal gland cortex, partially purified membrane fractions
# T1 sequence (P25104 1-359): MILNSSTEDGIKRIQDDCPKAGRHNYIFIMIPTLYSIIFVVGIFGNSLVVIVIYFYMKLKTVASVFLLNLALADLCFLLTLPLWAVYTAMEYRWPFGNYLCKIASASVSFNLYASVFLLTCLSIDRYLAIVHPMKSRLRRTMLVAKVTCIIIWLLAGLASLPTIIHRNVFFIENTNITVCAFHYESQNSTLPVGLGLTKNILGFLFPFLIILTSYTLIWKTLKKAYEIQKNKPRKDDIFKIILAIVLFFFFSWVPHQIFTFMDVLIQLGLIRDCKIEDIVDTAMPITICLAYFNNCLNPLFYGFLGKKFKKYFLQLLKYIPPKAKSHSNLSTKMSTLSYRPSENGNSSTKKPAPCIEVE
# Test: Interaction with the angiotensin II receptor on membrane fractions of the adrenal gland cortex (cattle), 3H-angiotensin II binding
# Conditions: bovine adrenal gland cortex membranes, 3H-angiotensin II 3-5 nM, 60 min at room temperature
# Source text: Interaction of the Compounds According to the Invention with the Angiotensin II Receptor on Membrane Fractions of the Adrenal Gland Cortex (Cattle)
# Adrenal gland cortices of cattle (AGC), which have been freshly removed and carefully freed from gland medulla, are comminuted in sucrose solution (0.32M) with the aid of an Ultra-Turrax (Janke & Kunkel, Staufen i.B.) to give a coarse membrane homogenate and are partially purified in two centrifugation steps to give membrane fractions. The receptor binding investigations are carried out on partially purified membrane fractions of bovine AGC using radioactive angiotensin II in an assay volume of 0.25 ml, which in detail contains the partially purified membranes (50-80 μg), ^3 H-angiotensin II (3-5 nM), test buffer solution (50 mM tris, pH 7.2, 5 mM MgCl2, 0.25% BSA) and the substances to be investigated. After an incubation time of 60 min at room temperature, the unbound radioactivity of the samples is separated by means of moistened glass fibre filters (Whatman GF/C) and the bound radioactivity is measured […] in a scintillation cocktail after washing the protein with ice-cold buffer solution (50 mM tris/HCl, pH 7.4, 5% PEG 6000). The analysis of the raw data was carried out using computer programs to give Ki or IC50 values (Ki : IC50 values corrected for the radioactivity used; IC50 values: concentration at which the substance to be investigated causes a 50% inhibition of the specific binding of the radioligand).
row,pKi,Structure (SMILES)
1,7.00,CCCCc1nc(Cl)c(C=C(CC2CCCC2)C(=O)O)n1Cc1ccc(S(=O)(=O)N2CCCCC2)cc1 [Example 9]
2,7.40,CCCCc1nc(Cl)c(C=C(CC2CCCCC2)C(=O)O)n1Cc1ccc(S(=O)(=O)N2CCCCC2)cc1 [Example 10]
3,7.40,CCCCc1nc(Cl)c(C=C(CC2CCCC2)C(=O)O)n1Cc1ccc(S(=O)(=O)N2CCCCC2C(=O)O)cc1Cl (stereo not drawn) [Example 20]
4,6.92,CCCCc1nc(Cl)c(C=C(Cc2cccs2)C(=O)OC)n1Cc1ccc(S(=O)(=O)N2CCCCC2C(=O)OC(C)(C)C)cc1 (stereo not drawn) [Example 30]

# Test system: smooth muscle cells
# Test: Inhibition of the proliferation of smooth muscle cells (3H-thymidine incorporation)
# Format: cell-based, rats or pigs
# Conditions: 10^-6 M
# Method: Investigation of Inhibition of the Proliferation of Smooth Muscle Cells by the Compounds According to the Invention
# To determine the antiproliferative action of the compounds, smooth muscle cells are used which have been obtained from the aortas of rats or pigs by the media explant technique [R. Ross, J. Cell. Biol. 50, 172, 1971]. The cells are inoculated into suitable culture dishes, as a rule 24-hole plates, and cultured at 37° C. in 5% CO2 for 2-3 days in Medium 199 containing 7.5% FCS and 7.5% NCS, 2 mM L-glutamine and 15 mM HEPES, pH 7.4. After this, the cells are synchronised by withdrawal of serum for 2-3 days and then stimulated into growth with AII, serum or other factors. At the same time, test compounds are added. After 16-20 hours, 1 μCi of ^3 H-thymidine is added and the incorporation of this substance into the TCA-precipitable DNA of the cells is determined after a further 4 hours.
row,Structure (SMILES),inhibition at 1 µM
1,CCCCc1nc(Cl)c(C=CC(=O)O)n1Cc1ccc(S(=O)(=O)N2CCCC2)cc1 [Example 6],70%
2,CCCCc1nc(Cl)c(C=C(Cc2cccs2)C(=O)OC)n1Cc1ccc(S(=O)(=O)N2CCCCC2)cc1 [Example 27],30%
